From article PMC10005104 (Molecules, 2023)
“And” between values parts separate entries of the source, which are not always exact repeats. Equal entries are not always repeated. “Also recorded” adds a separate entry of the source. Structures can show the parent of a compound that is named as a salt. Where two headings read alike, the source gives them in different places.

Assays:
[1] = biological target: T1, AChE from electrophorus electricus (eeAChE) (Electrophorus electricus, UniProt O42275); assay: modified Ellman colorimetric assay, eeAChE; type: biochemical; settings: for IC50: three independent experiments, read-out: eeAChE IC50 Mean ± SEM
T1 construct: purchased Sigma-Aldrich (Steinheim, Germany)
Protocol: All compounds were tested at a concentration of 10 µM in a modified colorimetric method first described by Ellman et al. in the 1960s, using AChE from electrophorus electricus (eeAChE) and BuChE from equine serum (eqBuChE). […]. All results are collected in Table 1. […]. […] No correlation was observed between inhibitory activity and hH3R affinity. The most interesting compounds were among the azepane derivatives. […]. AChE from electrophorus electricus and BuChE from equine serum were purchased from Sigma-Aldrich (Steinheim, Germany). The whole procedure was performed as previously described, using a modified Ellman method in 96-well microplates. Absorbance was measured using an EnSpire multimode microplate reader (PerkinElmer, Waltham, MA, USA) at 412 nm. Initial screening was performed for compounds at a concentration of […]. The percentage of inhibition was calculated by comparison with a blank sample (100% enzyme activity). For compounds showing >70% inhibition of enzyme activity, IC50 values were determined, measuring absorbance at six different inhibitor concentrations. Each concentration was measured in triplicate. IC50 values were calculated using GrapPad Prism 9 software (GraphPad Software, San Diego, CA, USA). Data are expressed as mean ± SEM.

[2] = biological target: T2, BuChE from equine serum (eqBuChE) (Equus caballus, UniProt P81908); assay: biochemical; settings: for IC50: three independent experiments, read-out: eqBuChE IC50 Mean ± SEM
T2 construct: BuChE from equine serum (eqBuChE); purchased Sigma-Aldrich (Steinheim, Germany); host or cells: equine serum
Protocol: AChE from electrophorus electricus and BuChE from equine serum were purchased from Sigma-Aldrich (Steinheim, Germany). The whole procedure was performed as previously described, using a modified Ellman method in 96-well microplates. […] Initial screening was performed for compounds at a concentration of […]. The percentage of inhibition was calculated by comparison with a blank sample (100% enzyme activity). […] Each concentration was measured in triplicate. IC50 values were calculated using GrapPad Prism 9 software (GraphPad Software, San Diego, CA, USA). Data are expressed as mean ± SEM.

[3] = MTS assay, statements on both cell lines together; type: cell-based, human; settings: human, HepG2 hepatoma cells and SH-SY5Y neuroblastoma cells; HepG2 48 h, SH-SY5Y 24 h; up to 50 µM; read-out: cell viability at the highest doses tested
[4] = MTS assay in SH-SY5Y cells; type: cell-based; settings: human, SH-SY5Y neuroblastoma cells; at 50 µM, percentage of control (vehicle-treated cells); read-out: SH-SY5Y Cell Viability (%)
Protocol: (§1) . After the indicated time, the MTS reagent was added directly to the cultured cells for 1 h, and then the absorbance at 490 nm was read. […] The results are presented in Table 2 and Figures S1 and S2 (Supplementary Materials).
(§2) The hepatoma cell line HepG2 (ATCC® HB-8065TM) and SH-SY5Y CRL-2266 neuroblastoma cell line were used to evaluate the toxicity of tested compounds. Tests were conducted as described previously. The CellTiter 96® Aqueous Non-Radioactive Cell Proliferation Assay was purchased from Promega (Madison, WI, USA). […]. […] Each experiment was performed twice, in triplicate.

SH-SY5Y cells = assay: MTS assay in SH-SY5Y cells; type: cell-based; settings: Homo sapiens, SH-SY5Y; MTS assay, 24 h of exposure
Protocol: as §1, §2

human H3 receptor (hH3R) = biological target: T3, human H3 receptor (hH3R) (Homo sapiens, UniProt Q9Y5N1); assay: [3H]-Nα-methylhistamine radioligand binding assay, HEK293 cell membranes expressing hH3R; settings: hH3R Ki Mean [CI 95%], HEK293 cells expressing human H3 receptor; at least three independent repetitions
T3 construct: expressed in transfected cells; host or cells: HEK293
Protocol: The affinity for hH3R was assessed in vitro in radioligand binding assays, using membrane preparations of HEK293 cells stably expressing hH3R, while [^3H]-N^α-methylhistamine was used as a radioligand. The exact procedure was described previously by Kottke et al.. Novel compounds were tested as oxalic acid salts. […]. The activity depended on all three variables, i.e., the presence of an amine group, the chain length (five or six carbons), and the type of substituent in the phenyl ring. With regard to the change in the amine moiety, it can be observed that, regardless of the length of the chain and the type of R substituent, the activity of the derivatives was arranged in the following order: 3-methylpiperidine ≥ piperidine ≥ azepane >> 4-metylpiperidine derivatives. Regarding the length of the carbon chain, compounds bearing the pentylene chain are characterized by a higher binding affinity to the receptor than hexylene derivatives (exception: 10). […]
H3R receptor affinity assays were performed in the radioligand competition assay. Human H3R was stably expressed in HEK293 cells. [^3H]-N^α-Methylhistamine (KD = 3.08 nM) was used as the radioligand. The compounds used in the experiments were dissolved in DMSO. The precise experiment was performed as previously described. Complete curves were obtained for at least seven approximate concentrations, in at least three independent experiments, performed at least in duplicate. Ki values were calculated using the Cheng–Prusoff equation. Results are presented as mean values with confidence intervals (CI) (95%).

hMAO B = biological target: T4, hMAO B (Homo sapiens, UniProt P27338); assay: fluorometric Amplex red MAO assay; type: biochemical; settings: at 1 µM; two independent experiments; read-out: hMAO B % inh
T4 construct: purchased Sigma-Aldrich (Steinheim, Germany)
T4 sequence (P27338 1-520): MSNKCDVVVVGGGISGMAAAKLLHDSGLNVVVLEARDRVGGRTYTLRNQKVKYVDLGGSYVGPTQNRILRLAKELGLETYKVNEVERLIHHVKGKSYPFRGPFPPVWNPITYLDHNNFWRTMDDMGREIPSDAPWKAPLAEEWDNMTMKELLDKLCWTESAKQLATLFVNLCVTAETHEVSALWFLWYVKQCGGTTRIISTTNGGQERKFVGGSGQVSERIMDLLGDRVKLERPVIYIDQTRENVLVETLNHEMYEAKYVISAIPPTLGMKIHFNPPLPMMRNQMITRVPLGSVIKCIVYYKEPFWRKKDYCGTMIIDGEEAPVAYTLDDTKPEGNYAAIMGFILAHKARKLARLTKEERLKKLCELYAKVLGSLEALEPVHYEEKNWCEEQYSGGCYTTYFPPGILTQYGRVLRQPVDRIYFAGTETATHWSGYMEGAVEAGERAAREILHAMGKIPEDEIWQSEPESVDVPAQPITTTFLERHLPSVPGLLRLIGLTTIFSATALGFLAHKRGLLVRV
Protocol: The ability to inhibit MAO B was estimated by a fluorescence assay, as previously described.
The enzyme was purchased from Sigma-Aldrich (Steinheim, Germany). Screening was carried out at a concentration of 1 micromolar. Inhibitor activity was measured in the presence of p-tyramine.
Data are expressed as mean values of two independent experiments.

MTS assay in HepG2 cells = type: cell-based; settings: human, HepG2 hepatoma cells; at 50 µM, percentage of control (vehicle-treated cells); read-out: HepG2 Cell Viability (%)
Protocol: as §1, §2

HepG2 cells = assay: MTS assay in HepG2 cells; type: cell-based; settings: Homo sapiens, HepG2; MTS assay, 48 h of exposure
Protocol: as §1, §2

HepG2 and SH-SY5Y cells = assay: MTS assay, statements on both cell lines together; type: cell-based, human; settings: HepG2 or SH-SY5Y cells; up to 50 µM
eqBuChE = biological target: T5, eqBuChE (Equus caballus, UniProt P81908); assay: kinetic study of eqBuChE inhibition (Lineweaver-Burk, Cornish-Bowden plots); type: biochemical, equine; settings: substrate butyrylthiocholine
T5 construct: BuChE from equine serum (eqBuChE); purchased Sigma-Aldrich (Steinheim, Germany); host or cells: equine serum
Protocol: The Michaelis–Menten equation was used to calculate the maximum velocity (Vmax) and the Michaelis constant (Km).
(§3) The type of line intersection and the location of this intersection confirms the mixed type of inhibition.
(§4) Studies were performed with compounds 16 and 17 using a method as described previously. Vmax and Km values of the Michaelis–Menten kinetics were calculated by nonlinear regression from substrate–velocity curves. Lineweaver–Burk and Cornish–Bowden plots were calculated using linear regression in GraphPad Prism 9 software (GraphPad Software, San Diego, CA, USA). Each experiment was performed in triplicate.

eeAChE = biological target: T6, eeAChE (Electrophorus electricus, UniProt O42275); assay: kinetic study of eeAChE inhibition (Lineweaver-Burk, Cornish-Bowden plots); type: biochemical; settings: substrate acetylthiocholine
T6 construct: purchased Sigma-Aldrich (Steinheim, Germany)
Protocol: […]. The Michaelis–Menten equation was used to calculate the maximum velocity (Vmax) and the Michaelis constant (Km).
as §3, §4

mpBuChE = test system: mpBuChE; design: method as in PMID 30822710; settings: cited from earlier work
hH3R [5] = settings: cited from earlier work
[6] = test system: AChE extracted from mouse brains (mbAChE); design: method as in PMID 30822710; settings: cited from earlier work
[7] = biological target: T2, BuChE from equine serum (eqBuChE); settings: cited from earlier work
[8] = biological target: T1, AChE from electrophorus electricus (eeAChE); settings: cited from earlier work
hH3R [9] = settings: cited from earlier work; remark: listed apart in the source

T1 sequence (O42275 24-633): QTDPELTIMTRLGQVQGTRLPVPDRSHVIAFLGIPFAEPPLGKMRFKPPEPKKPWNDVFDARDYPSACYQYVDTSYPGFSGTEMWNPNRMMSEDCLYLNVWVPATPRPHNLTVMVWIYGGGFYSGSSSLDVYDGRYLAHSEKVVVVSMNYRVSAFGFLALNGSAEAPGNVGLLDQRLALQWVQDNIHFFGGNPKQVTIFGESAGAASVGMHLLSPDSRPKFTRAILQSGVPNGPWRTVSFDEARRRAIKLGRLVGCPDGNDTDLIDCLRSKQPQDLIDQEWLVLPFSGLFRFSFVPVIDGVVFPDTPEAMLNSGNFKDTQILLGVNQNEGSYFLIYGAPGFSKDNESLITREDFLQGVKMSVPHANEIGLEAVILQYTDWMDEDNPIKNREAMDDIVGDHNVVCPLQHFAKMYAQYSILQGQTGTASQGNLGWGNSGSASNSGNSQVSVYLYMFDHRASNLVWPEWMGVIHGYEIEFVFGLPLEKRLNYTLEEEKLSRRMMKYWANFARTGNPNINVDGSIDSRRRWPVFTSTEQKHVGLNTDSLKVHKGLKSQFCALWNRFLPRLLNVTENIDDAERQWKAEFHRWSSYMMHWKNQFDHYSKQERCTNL
T3 sequence (Q9Y5N1 whole entry): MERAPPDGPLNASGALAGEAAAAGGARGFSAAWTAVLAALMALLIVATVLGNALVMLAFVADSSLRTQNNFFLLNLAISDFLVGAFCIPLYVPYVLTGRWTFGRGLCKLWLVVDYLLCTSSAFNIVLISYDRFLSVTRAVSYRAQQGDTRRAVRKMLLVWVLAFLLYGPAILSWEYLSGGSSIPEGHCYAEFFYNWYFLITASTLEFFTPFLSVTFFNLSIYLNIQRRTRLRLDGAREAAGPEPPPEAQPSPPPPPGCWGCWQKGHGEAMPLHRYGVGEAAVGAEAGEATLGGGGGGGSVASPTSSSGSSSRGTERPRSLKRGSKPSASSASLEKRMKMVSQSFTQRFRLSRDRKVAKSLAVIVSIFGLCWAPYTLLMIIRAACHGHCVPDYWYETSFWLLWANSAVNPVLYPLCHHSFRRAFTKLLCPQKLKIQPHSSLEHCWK
T2 sequence (P81908 whole entry): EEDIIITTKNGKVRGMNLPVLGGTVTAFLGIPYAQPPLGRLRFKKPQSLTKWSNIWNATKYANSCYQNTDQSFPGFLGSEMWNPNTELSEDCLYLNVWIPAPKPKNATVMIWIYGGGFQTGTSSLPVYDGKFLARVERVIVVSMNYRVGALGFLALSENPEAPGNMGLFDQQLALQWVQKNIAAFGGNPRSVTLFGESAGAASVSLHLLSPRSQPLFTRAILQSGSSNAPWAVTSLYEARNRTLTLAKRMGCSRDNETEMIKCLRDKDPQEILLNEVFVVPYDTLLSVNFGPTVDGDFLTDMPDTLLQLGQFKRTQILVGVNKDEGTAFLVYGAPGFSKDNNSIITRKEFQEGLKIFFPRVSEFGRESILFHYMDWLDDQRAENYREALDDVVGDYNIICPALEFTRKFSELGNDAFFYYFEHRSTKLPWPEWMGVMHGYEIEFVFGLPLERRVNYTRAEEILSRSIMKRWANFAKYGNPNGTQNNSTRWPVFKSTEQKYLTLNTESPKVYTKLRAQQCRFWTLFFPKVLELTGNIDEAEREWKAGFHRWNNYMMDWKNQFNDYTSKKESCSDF
T6 sequence (O42275 24-633): as the sequence (O42275 24-633) above
T5 sequence (P81908 whole entry): as the sequence (P81908 whole entry) above

| SMILES | IC50 [1] | viability at 50 µM [3] | viability at 24 h, 50 µM [4] | IC50 (SH-SY5Y cells) | Ki (human H3 receptor (hH3R)) | inhibition at 1 µM (hMAO B) | viability at 48 h, 50 µM (MTS assay in HepG2 cells) | IC50 (HepG2 cells) | IC50 [2] | IC50 [7] | IC50 [8] | Ki (hH3R [9]) | also measured |
| --- | --- | --- | --- | --- | --- | --- | --- | --- | --- | --- | --- | --- | --- |
| CC(=O)c1ccc(OCCCCCN2CCCC(C)C2)cc1 (stereo not shown) [Compound 6, 1-(4-((5-(3-Methylpiperidin-1-yl)pentyl)oxy)phenyl)ethan-1-one hydrogen oxalate] | 3060 ± 100 nM | > 50% | 86.2 ± 2.2% | 149000 nM | < 50 nM and 26 nM | 10% | 74.3 ± 5.58% | 120000 nM | – | – | – | – | inhibition at 10 µM ([2]; at 10 µM, read-out: eqBuChE % inh): 14% |
| CCC(=O)c1ccc(OCCCCCN2CCCC(C)C2)cc1 (stereo not shown) [Compound 8, 1-(4-((5-(3-Methylpiperidin-1-yl)pentyl)oxy)phenyl)propan-1-one hydrogen oxalate] | 2100 ± 60 nM | > 50% | 90.7 ± 1.5% | 349000 nM | 12 nM | 19% | 70.9 ± 2.92% | 142000 nM | 1750 ± 50 nM | – | – | – | – |
| CCC(=O)c1ccc(OCCCCCN2CCC(C)CC2)cc1 [Compound 12, 1-(4-((5-(4-Methylpiperidin-1-yl)pentyl)oxy)phenyl)propan-1-one hydrogen oxalate] | – | > 50% | 90.7 ± 12.9% | 421000 nM | 57 nM | 0% | 77.2 ± 4.14% | 149000 nM | 1290 ± 80 nM | – | – | – | inhibition at 10 µM ([1]; at 10 µM, read-out: eeAChE % inh): 58% |
| CCC(=O)c1ccc(OCCCCCN2CCCCCC2)cc1.O=C(O)C(=O)O [Compound 16, 1-(4-((5-(Azepan-1-yl)pentyl)oxy)phenyl)propan-1-one hydrogen oxalate] | 3600 ± 120 nM | > 50% | 90.3 ± 5.32% | 357000 nM | < 50 nM and 30 nM | 6% | 67.7 ± 1.14% | 92000 nM | 550 ± 20 nM | – | – | – | cell toxicity (HepG2 and SH-SY5Y cells): lack of cell toxicity; type of eqBuChE inhibition (eqBuChE): mixed |
| CCC(=O)c1ccc(OCCCCCCN2CCCCCC2)cc1.O=C(O)C(=O)O [Compound 17, 1-(4-((6-(Azepan-1-yl)hexyl)oxy)phenyl)propan-1-one hydrogen oxalate] | 1060 ± 30 nM | > 50% | 70.3 ± 4.46% | 111000 nM | < 50 nM and 42 nM | 5% | 58 ± 3.54% | 60000 nM | 2860 ± 30 nM | – | – | – | type of eeAChE inhibition (eeAChE): non-competitive (mixed); also recorded: mixed; cell toxicity (HepG2 and SH-SY5Y cells): lack of cell toxicity |
| CCN(C)CCCCOc1ccc2c(=O)c(-c3ccc(OCCN4CCCCC4)cc3)coc2c1 [II] | – | – | – | – | – | – | – | – | – | – | – | – | IC50 (mpBuChE): 2890 nM; IC50 (hH3R [5]): 270 nM; IC50 [6]: 80 nM |
| CN1CCN(CCCN(C)C(=O)c2cc3ccc(Cl)cc3[nH]2)CC1 [I] | – | – | – | – | – | – | – | – | – | 21100 nM | 9090 nM | – | EC50 (hH3R [5]): 730 nM |
| C=CCN1CCN(CC2Cc3cc(C(C)(C)C)ccc3O2)CC1 (stereo not shown) [VI] | – | – | – | – | – | – | – | – | – | 13200 nM | 19100 nM | 16 nM | – |
| N#Cc1ccc(-c2ccc(OCCCN3CCCCCC3)cc2)cc1 [V] | – | – | – | – | – | – | – | – | – | 1300 nM | 2630 nM | 9 nM | – |
| O=C(c1ccccc1)c1ccc(OCCCCCN2CCCCCC2)cc1 [lead 2] | – | – | – | – | – | – | – | – | – | 680 nM | 4630 nM | 40 nM | – |
